Several values for one entry are separate records, joined by “and”; a condition that tells them apart may be missing. Equal entries are not always repeated.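 How tested: cells in 96-well plates exposed to compound for 48 hours at five concentrations. GI50: concentration for 50% inhibition of growth. Definition used: TGI = concentration required for complete inhibition of growth.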
How the values were obtained:
Assay in all cases: NCI-60 cell line screen, 48 h
COLO 205 colon = system: COLO 205 colon
K-562 leukemia = system: K-562 leukemia
KM12 colon = system: KM12 colon
MDA-MB-435 = system: MDA-MB-435
NCI-H23 lung = system: NCI-H23 lung
NCI-H460 lung = system: NCI-H460 lung
OVCAR-5 ovarian = system: OVCAR-5 ovarian
RPMI-8226 leukemia = system: RPMI-8226 leukemia
SK-OV-3 ovarian = system: SK-OV-3 ovarian
UO-31 renal = system: UO-31 renal

Row | Compound | GI50 (COLO 205 colon) | TGI (COLO 205 colon) | GI50 (K-562 leukemia) | TGI (K-562 leukemia) | GI50 (KM12 colon) | TGI (KM12 colon) | GI50 (MDA-MB-435) | TGI (MDA-MB-435) | TGI (NCI-H23 lung) | GI50 (NCI-H460 lung) | TGI (NCI-H460 lung) | TGI (OVCAR-5 ovarian) | TGI (RPMI-8226 leukemia) | GI50 (SK-OV-3 ovarian) | TGI (SK-OV-3 ovarian) | GI50 (UO-31 renal) | TGI (UO-31 renal) | GI50 (NCI-H23 lung) | GI50 (OVCAR-5 ovarian) | GI50 (RPMI-8226 leukemia)
1 | CCN(CC)CCCC(C)Nc1ccnc2cc(Cl)ccc12 (stereo not given) | 50.8 µM | > 100 µM and 38.7 µM | 22.6 µM | 88.2 µM and 32.4 µM | 79.5 µM | > 100 µM | 20.3 µM | 43.3 µM and 37.3 µM | > 100 µM | 66.6 µM | > 100 µM | > 100 µM | 69.6 µM | > 100 µM | > 100 µM | 84.8 µM | > 100 µM and 46.4 µM | – | – | –
2 | CN(C)CCCN(CCC1CCCCC1)CCC1CCCCC1 | 1.48 µM | 3.36 µM | 0.591 µM | – | 1.78 µM | 3.44 µM | 1.35 µM | 3.03 µM | 17.9 µM | 1.79 µM | 3.45 µM | 7.97 µM | 3.86 µM | 7.68 µM | 21.5 µM | 1.38 µM | 4.24 µM | 4.8 µM | 2.7 µM | 0.424 µM
3 | CSC(=NC#N)S/C=C/C(=O)c1ccccc1 | 35.2 µM | > 100 µM | 32.7 µM | > 100 µM | > 100 µM | > 100 µM | 34.7 µM | > 100 µM | 58.8 µM | > 100 µM | > 100 µM | > 100 µM | 34.7 µM | > 100 µM | > 100 µM | 28.3 µM | > 100 µM | 23.8 µM | 62 µM | 12.3 µM
4 | C=C(CN1CCN(c2ccc(C(F)(F)F)cc2)CC1)c1ccc(C(=O)Nc2ccccc2N)cc1 | > 100 µM | > 100 µM | 0.302 µM | > 36.5 µM | 7.64 µM | > 100 µM | > 25.2 µM | > 100 µM | > 100 µM | 3.44 µM | > 100 µM | > 100 µM | – | 12.1 µM | > 100 µM | 0.967 µM | > 73.1 µM | 9.49 µM | > 100 µM | 0.405 µM
5 | O=C(CCl)NCCNc1nccc(Nc2ccc(S(=O)(=O)Nc3ccccn3)cc2)n1 | 3.22 µM | 11.6 µM | 2.57 µM | 17 µM | 3.12 µM | 11.6 µM | 1.96 µM | 7.13 µM | 6.11 µM | 2.39 µM | 7.22 µM | 5.1 µM | 7.6 µM | 4.67 µM | 42.8 µM | 2.77 µM | 10 µM | 2.04 µM | 2.28 µM | 2.09 µM
6 | BrC(Br)=C1C(=C(Br)Br)C(Br)C1Br (stereo not given) | – | 2.59 µM | – | 1.19 µM | – | 2.15 µM | – | 2.82 µM | 1.46 µM | – | 1.35 µM | 3.27 µM | 1.14 µM | – | 12.7 µM | – | 2.24 µM | – | – | –
7 | CCN1CCC(Nc2ccnc3cc(Cl)ccc23)CC1 | 12.5 µM | 27.1 µM | 4.83 µM | > 100 µM | 25.2 µM | > 100 µM | 17.8 µM | 55.5 µM | > 100 µM | 28.7 µM | > 100 µM | > 100 µM | 78.3 µM | > 100 µM | > 100 µM | 9.06 µM | 29 µM | 74.1 µM | 34.2 µM | 25.9 µM
8 | CC1=C2CC(C)(C)/C=C\C(=O)/C(C)=C\C3=C[C@H](C)C[C@]3(O2)C1=O | – | 9.27 µM | – | 14.4 µM | – | 6 µM | – | 1.66 µM | 3.76 µM | – | 14 µM | 3.37 µM | 1.51 µM | – | 24.6 µM | – | 2.61 µM | – | – | –
9 | Cc1c2ccn(O)cc2c(C)c2c1nc1ccccc12 | – | > 100 µM | – | > 81.4 µM | – | > 100 µM | – | > 100 µM | 30.2 µM | – | 37.9 µM | 53.5 µM | > 100 µM | – | 39.6 µM | – | 27.5 µM | – | – | –
10 | CC(=O)/C(=C/c1ccccc1)C(=O)CC(C)C | 16.9 µM | 35.5 µM | 3.77 µM | > 100 µM | 2.25 µM | 5.01 µM | 2.44 µM | 7.72 µM | 43.1 µM | 17.5 µM | 38.5 µM | 41.6 µM | 98.2 µM | 31.8 µM | 99 µM | 10.5 µM | 22.6 µM | 18.4 µM | 17.7 µM | 4.31 µM
11 | O=C1/C=C/[C@@H](O)[C@@H]2C[C@@H](O)C[C@H]2/C=C/CCC[C@H](CCc2cccc3ccccc23)O1 | 0.0659 µM | 0.152 µM | 0.368 µM | 14.4 µM | 0.032 µM | 0.959 µM | 0.0394 µM | 3.43 µM | 1.9 µM | 0.274 µM | 12.2 µM | 13.9 µM | 2.73 µM | 0.064 µM | 12 µM | 0.046 µM | 12.3 µM | 0.0637 µM | 0.103 µM | 0.0847 µM
12 | COc1cc(C2CC(c3cccc(Nc4ccnc5cc(Cl)ccc45)c3)=NN2c2ccc(Cl)cc2)cc(OC)c1OC (stereo not given) | 3.13 µM | 24.5 µM | 0.755 µM | > 100 µM | 0.818 µM | 93.6 µM | 0.804 µM | 6.58 µM | > 100 µM | 0.772 µM | > 100 µM | > 100 µM | > 100 µM | 17.3 µM | > 100 µM | 0.489 µM | 15.3 µM | 17.5 µM | 13.2 µM | 3.69 µM
13 | CCCCCCCCCCCCCCCCCc1nccn1CCOCCO | 6.07 µg/mL | 11.4 µg/mL | 4.87 µg/mL | 12.1 µg/mL | 6.06 µg/mL | 11.4 µg/mL | 5.85 µg/mL | 11.7 µg/mL | 9.73 µg/mL | 5.66 µg/mL | 11.9 µg/mL | 11.2 µg/mL | 10.9 µg/mL | 5.67 µg/mL | 10.8 µg/mL | 5.68 µg/mL | 11.6 µg/mL | 4.73 µg/mL | 5.86 µg/mL | 3.87 µg/mL
14 | CC/C=C\C[C@H](F)C/C=C1/C(=O)C=C[C@@H]1C/C=C\CCCC(=O)OC | 1.22 µM | 2.72 µM | 1.49 µM | 6.19 µM | 1.26 µM | 3.43 µM | 1.25 µM | 3.37 µM | 10.9 µM | 1.44 µM | 4.11 µM | 12.4 µM | 5.49 µM | 10.5 µM | 32.1 µM | 2.13 µM | 9.72 µM | 2.16 µM | 3.35 µM | 1.39 µM
